Data as given in patent US6586596B2, “Acetylcholine enhancers” (priority 1998, dated 2003).

Assays:
[1] = target: T1, peripheral 5-HT3 receptor (Rattus norvegicus, UniProt P35563); assay: 5-HT-evoked von Bezold-Jarish Effect (B.J.E.) in anesthetized rats; type: in vivo; settings: Cm.A 3 to 10 mg/kg; for inhibition of 5-HT-evoked B.J.E. (reflex bradycardia): i.v. pretreatment, E2020 0.1~1 mg/kg, 5-HT 20 μg/kg i.v.; for blood pressure, heart rate and other signs: i.v., THA 10 mg/kg, E2020 higher than 1 mg/kg, data not shown
T1 construct: from tissue; host or cells: whole anesthetized rat (peripheral receptors)
T1 sequence (P35563 24-483): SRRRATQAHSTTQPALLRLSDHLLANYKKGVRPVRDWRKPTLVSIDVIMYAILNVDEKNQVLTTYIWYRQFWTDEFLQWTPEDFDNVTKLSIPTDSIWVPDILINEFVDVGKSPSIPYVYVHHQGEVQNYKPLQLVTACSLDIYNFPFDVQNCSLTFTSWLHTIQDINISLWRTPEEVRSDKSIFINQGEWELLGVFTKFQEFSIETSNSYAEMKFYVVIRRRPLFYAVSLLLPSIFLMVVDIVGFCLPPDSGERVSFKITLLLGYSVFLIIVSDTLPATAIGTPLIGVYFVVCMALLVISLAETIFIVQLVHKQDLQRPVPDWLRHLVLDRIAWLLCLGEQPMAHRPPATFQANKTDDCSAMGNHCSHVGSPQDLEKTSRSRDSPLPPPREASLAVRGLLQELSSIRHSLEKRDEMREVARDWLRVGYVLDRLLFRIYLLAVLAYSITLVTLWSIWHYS
Protocol: A bolus i.v. injection of serotonin (5-HT) (20 μg/kg) caused reflex bradycardia transiently (von Bezold—Jarish Effect: B.J.E.) via activation of peripheral 5-HT3 receptor in anesthetized rats.

BF-lesioned rats = assay: Water maze, BF lesion-induced deficit in spatial learning; settings: oral; Cm.A 0.3, 1.0 and 3.0 mg/kg/day, THA 1.0 mg/kg/day, E2020 0.3 and 1.0 mg/kg/day
Protocol: For each training trial, the rat was placed in the water (22° C.) such that the animal faced the wall of a circular pool (150 cm in diameter, 45 cm in height), and started at one of five starting points (selected randornly). In each trial, the latency period to escape onto the hidden platform (fixed in the middle of one quadrant, 2 cm below the surface of water) was recorded. These procedures were repeated once or twice a day during the experimental period.

5-HT3 receptor = target: T2, 5-HT3 receptor (Mus musculus, UniProt P23979); assay: serotonin 5-HT3 binding assay (NovaScreen), NIE-115 cells; settings: 20 mM HEPES pH 7.4, 150 mM NaCl, 25° C., 60 minutes
T2 construct: The receptor source was NIE-115 cells; host or cells: NIE-115 cells
T2 sequence (P23979 24-489): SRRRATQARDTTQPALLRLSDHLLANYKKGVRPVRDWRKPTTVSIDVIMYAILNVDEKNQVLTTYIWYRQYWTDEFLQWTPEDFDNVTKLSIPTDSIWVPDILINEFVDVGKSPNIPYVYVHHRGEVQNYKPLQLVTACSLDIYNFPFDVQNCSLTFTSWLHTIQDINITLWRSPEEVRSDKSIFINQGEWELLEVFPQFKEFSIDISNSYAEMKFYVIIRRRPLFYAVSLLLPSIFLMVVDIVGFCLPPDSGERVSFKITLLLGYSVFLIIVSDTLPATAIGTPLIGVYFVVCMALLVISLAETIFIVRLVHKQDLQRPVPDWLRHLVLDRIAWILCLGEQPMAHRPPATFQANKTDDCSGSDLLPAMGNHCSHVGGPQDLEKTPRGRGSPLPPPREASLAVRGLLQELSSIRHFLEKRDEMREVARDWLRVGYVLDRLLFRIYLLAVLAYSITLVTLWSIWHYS
Protocol: Binding affinity of a variety of compounds, including Cm.A, for the 5-HT3 receptor was investigated using a commercially available serotonin 5-HT3 binding assay (NovaScreen, Hanover, Md.). The receptor source was NIE-115 cells (See Lunnis, S. C. R. and Kilparick, G. J., 189: Evr. Jrnl. Pharmacol. 223 (1990); and Hoyer, D. and Heijt, H. C., 33 Mol. Pharmacol., 303 (1988)). The reference compound utilized was “MDL 72222,” a 5-HT3 receptor antagonist. Reactions were carried out in 20 mM HEPES (pH 7.4) containing 150 mM NaCl at 25° C. for 60 minutes. The reaction was terminated by rapid vacuum filtration onto glass fiber filters. Radioactivity trapped onto the filters was determined and compared with the control values.

Cynomologous monkeys [2] = assay: Hepatotoxic analysis, two-week oral study; type: in vivo; settings: monkey, in vivo, po, 5 mg/kg/day
Description: The following parameters were examined: body weight, clinical signs, food consumption, blood biochemistry (GOT, GPT, ALP, LDH, γ-GTP, ChE, Bil, T.Pro, Alb, A/G ratio, T.Cho, NEFA, TG). After the administration period, the animals were sacrificed and autopsied. Organs and tissues were weighed, then examined histopathologically.

[3] = system: extracellular levels of ACh in hippocampus; assay: ACh release in hippocampus, microdialysis in freely moving rats; type: in vivo
Protocol: ACh content in perfusate obtained from hippocampus (Bregma, A: −5.8 mm, L: 5.0 mm, H: 4.0 mm) of brain were continuously detected by means of HPLC and ECD through the microdialysis system using freely moving rats (See Messamore and Kawashima, supra). After an equilibration period, five fractions were allowed to obtain basal ACh content. Test substances were injected i.p., and thereafter, microdialytic analysis was conducted for 3 hr.

[4] = system: scopolamine-induced spatial learning deficit; assay: Water maze, scopolamine-induced deficit in spatial learning; type: in vivo, rats; settings: p.o. 60 minutes before each trial; Cm.A 1.0 mg/kg/day; scopolamine 0.5 mg/kg i.p.
Protocol: A total of 6 trials (2 trials on 1st day, and 1 trial after 2nd day) were conducted to observe the effects of the test compounds. Scopolamine (0.5 mg/kg, i.p.) and the test compounds (p.o.) were administered 30 and 60 minutes before each trial, respectively.

[5] = system: extracellular levels of ACh in striatum; assay: ACh release in striatum, microdialysis in freely moving rats; type: in vivo
Protocol: ACh content in perfusate obtained from striatum (Bregma, A: 0.2 mm, L: 3.0 mm, H: 4.0 mm) of brain were continuously detected by means of HPLC and ECD through the microdialysis system using freely moving rats. See Messamore, E., et al, 32 Neuropharmacol. […] After an equilibration period of more than 2 hours, five fractions were allowed to obtain basal ACh content. Compounds were injected i.p., and thereafter, a microdialytic analysis was conducted for 3 hours.

Cynomologous monkeys [6] = assay: Hepatotoxic analysis, four-week oral study; type: in vivo
Protocol: During the testing period, these animals were dosed with three different regimens: first, animals were dosed with 10 mg/kg/day for 7 days, followed by 32 days-washout period, second, animals were dosed with 5 mg/kg/day for 14 days, and thereafter the animals were dosed with 10 mg/kg/day for 7 days. The following parameters were examined: body weight, clinical signs, food consumption, blood biochemistry (GOT, GPT, ALP, LDH, γ-GTP, ChE, Bil, T.Pro, Alb, A/G ratio, T.Cho, NEFA, TG).

| SMILES | inhibition of 5-HT-evoked B.J.E. (reflex bradycardia) [1] | blood pressure, heart rate and other signs [1] | deficit of spatial learning (escape latency) (BF-lesioned rats) | IC50 (5-HT3 receptor; read-out: IC50) [nM] | Ki (5-HT3 receptor; read-out: Ki) [nM] | Clinical signs softstool (Cynomologous monkeys [2]) | Clinical signs vomiting (Cynomologous monkeys [2]) | Food consumption (Cynomologous monkeys [2]) | increase of ACh content compared with Cm.A ([3]; hippocampus, i.p.) | centrally acting cholinergic symptoms (tremor, chewing and yawning) ([3]; rat, in vivo, ip) | deficit in spatial learning (escape latency) [4] | centrally acting cholinergic symptoms (tremor, chewing and yawning) ([5]; rat, in vivo, ip) | increase of ACh content compared with Cm.A ([5]; striatum, young rats, i.p.) | Blood biochemistry (Cynomologous monkeys [6]; F, oral, four weeks) | Clinical signs softstool (Cynomologous monkeys [6]; monkey, in vivo, po) | clinical signs (Cynomologous monkeys [6]; monkey, in vivo, po) | food consumption and body weight (Cynomologous monkeys [6]; monkey, in vivo, po) | blood biochemical tests (Cynomologous monkeys [6]; oral, four weeks) |
| --- | --- | --- | --- | --- | --- | --- | --- | --- | --- | --- | --- | --- | --- | --- | --- | --- | --- | --- |
| COc1cc2c(cc1OC)C(=O)C(CC1CCN(Cc3ccccc3)CC1)C2 (stereo not drawn) [E2020, donepezil] | no inhibitory effect on B.J.E. | caused hypertension, salivation and tremor | also improved this type of deficit |  |  |  |  |  |  |  |  |  |  |  |  |  |  |  |
| CN1[C@@H]2CC[C@H]1C[C@@H](OC(=O)c1cc(Cl)cc(Cl)c1)C2 [MDL 72222] |  |  |  | 8.99 | 4.14 |  |  |  |  |  |  |  |  |  |  |  |  |  |
| Nc1c2c(nc3ccccc13)CCCC2 [THA, 1,2,3,4-tetrahydro-9-acridinamine, reference compound] | slight tendency to decrease the reflex | caused severe hypertension, salivation and tremor | also improved this type of deficit |  |  | − | + | − | somewhat weak | more apparent as compared with Cm.A | no significant effect | greater severity as compared with Cm.A | increased the ACh content more potently and long-lastingly than Cm.A | ↓: CHE | +++ | severe vomiting and soft stools or diarrhea | decrease in body weight and food consumption | increase in TG and NEFA, decrease in ChE and T.Cho |
